From ChEMBL document CHEMBL5724914, “Linking interpersonal differences in gut microbiota composition and drug biotransformation activity” (2024)

Key:
[1] = The drug is tested on WLS-038 corresponding to human gut metagenome with ENA study accession number: PRJEB37062 and ENA sample accession number: ERS12561745 for biotransformation under anaerobic condition. The drug concentrations were measured over 9 timepoints collected between 0 and 24 hours of incubation by liquid-chromatography-coupled mass spectrometry (LC–MS); conditions: 2 µM
[2] = human gut metagenome, 24 h, 2 µM
[3] = The drug is tested on Z-024 corresponding to pig gut metagenome with ENA study accession number: PRJEB37062 and ENA sample accession number: ERS12561823 for biotransformation under anaerobic condition. The drug concentrations were measured over 9 timepoints collected between 0 and 24 hours of incubation by liquid-chromatography-coupled mass spectrometry (LC–MS); conditions: 2 µM
[4] = human gut metagenome, 24 h, 2 µM; remark: listed apart in the source
[5] = human gut metagenome, 24 h, 2 µM; remark: listed apart in the source
[6] = The drug is tested on WLS-010 corresponding to human gut metagenome with ENA study accession number: PRJEB37062 and ENA sample accession number: ERS12561743 for biotransformation under anaerobic condition. The drug concentrations were measured over 9 timepoints collected between 0 and 24 hours of incubation by liquid-chromatography-coupled mass spectrometry (LC–MS); conditions: 2 µM
[7] = The drug is tested on WLS-350 corresponding to human gut metagenome with ENA study accession number: PRJEB37062 and ENA sample accession number: ERS12561789 for biotransformation under anaerobic condition. The drug concentrations were measured over 9 timepoints collected between 0 and 24 hours of incubation by liquid-chromatography-coupled mass spectrometry (LC–MS); conditions: 2 µM
[8] = human gut metagenome, 24 h, 2 µM; remark: listed apart in the source
[9] = The drug is tested on WLS-170 corresponding to human gut metagenome with ENA study accession number: PRJEB37062 and ENA sample accession number: ERS12561762 for biotransformation under anaerobic condition. The drug concentrations were measured over 9 timepoints collected between 0 and 24 hours of incubation by liquid-chromatography-coupled mass spectrometry (LC–MS); conditions: 2 µM
[10] = The drug is tested on WLS-027 corresponding to human gut metagenome with ENA study accession number: PRJEB37062 and ENA sample accession number: ERS12561744 for biotransformation under anaerobic condition. The drug concentrations were measured over 9 timepoints collected between 0 and 24 hours of incubation by liquid-chromatography-coupled mass spectrometry (LC–MS); conditions: 2 µM
[11] = human gut metagenome, 24 h, 2 µM; remark: listed apart in the source
[12] = The drug is tested on WLS-220 corresponding to human gut metagenome with ENA study accession number: PRJEB37062 and ENA sample accession number: ERS12561769 for biotransformation under anaerobic condition. The drug concentrations were measured over 9 timepoints collected between 0 and 24 hours of incubation by liquid-chromatography-coupled mass spectrometry (LC–MS); conditions: 2 µM
[13] = The drug is tested on Z-006 corresponding to mouse gut metagenome with ENA study accession number: PRJEB37062 and ENA sample accession number: ERS12561806 for biotransformation under anaerobic condition. The drug concentrations were measured over 9 timepoints collected between 0 and 24 hours of incubation by liquid-chromatography-coupled mass spectrometry (LC–MS); conditions: 2 µM
[14] = The drug is tested on Z-021 corresponding to metagenome with ENA study accession number: PRJEB37062 and ENA sample accession number: ERS12561820 for biotransformation under anaerobic condition. The drug concentrations were measured over 9 timepoints collected between 0 and 24 hours of incubation by liquid-chromatography-coupled mass spectrometry (LC–MS); conditions: 2 µM
[15] = human gut metagenome, 24 h, 2 µM; remark: listed apart in the source
[16] = human gut metagenome, 24 h, 2 µM; remark: listed apart in the source
[17] = human gut metagenome, 24 h, 2 µM; remark: listed apart in the source
[18] = human gut metagenome, 24 h, 2 µM; remark: listed apart in the source
[19] = The drug is tested on WLS-073 corresponding to human gut metagenome with ENA study accession number: PRJEB37062 and ENA sample accession number: ERS12561749 for biotransformation under anaerobic condition. The drug concentrations were measured over 9 timepoints collected between 0 and 24 hours of incubation by liquid-chromatography-coupled mass spectrometry (LC–MS); conditions: 2 µM
[20] = The drug is tested on Z-016 corresponding to mouse gut metagenome with ENA study accession number: PRJEB37062 and ENA sample accession number: ERS12561815 for biotransformation under anaerobic condition. The drug concentrations were measured over 9 timepoints collected between 0 and 24 hours of incubation by liquid-chromatography-coupled mass spectrometry (LC–MS); conditions: 2 µM
Note: call rule not given here.

| Structure (SMILES) | Bacterial Biotransformation [1] | Bacterial Biotransformation [2] | Bacterial Biotransformation [3] | Bacterial Biotransformation [4] | Bacterial Biotransformation [5] | Bacterial Biotransformation [6] | Bacterial Biotransformation [7] | Bacterial Biotransformation [8] | Bacterial Biotransformation [9] | Bacterial Biotransformation [10] | Bacterial Biotransformation [11] | Bacterial Biotransformation [12] | Bacterial Biotransformation [13] | Bacterial Biotransformation [14] | Bacterial Biotransformation [15] | Bacterial Biotransformation [16] | Bacterial Biotransformation [17] | Bacterial Biotransformation [18] | Bacterial Biotransformation [19] | Bacterial Biotransformation [20] |
| --- | --- | --- | --- | --- | --- | --- | --- | --- | --- | --- | --- | --- | --- | --- | --- | --- | --- | --- | --- | --- |
| Nc1nc(NC2CC2)c2ncn([C@H]3C=C[C@@H](CO)C3)c2n1.Nc1nc(NC2CC2)c2ncn([C@H]3C=C[C@@H](CO)C3)c2n1.O=S(=O)(O)O [ABACAVIR SULFATE] | Compound NOT metabolized | Compound metabolized | Compound NOT metabolized | Compound metabolized | Compound NOT metabolized | Compound NOT metabolized | Compound metabolized | Compound metabolized | Compound metabolized | Compound NOT metabolized | Compound metabolized | Compound metabolized | Compound NOT metabolized | Compound NOT metabolized | Compound NOT metabolized | Compound metabolized | Compound metabolized | Compound metabolized | Compound metabolized | Compound NOT metabolized |
| CC(C)(C)NC[C@H](O)COc1nsnc1N1CCOCC1.O=C(O)/C=C\C(=O)O [TIMOLOL MALEATE] | Compound NOT metabolized | Compound NOT metabolized | Compound NOT metabolized | Compound NOT metabolized | Compound NOT metabolized | Compound NOT metabolized | Compound NOT metabolized | Compound NOT metabolized | Compound NOT metabolized | Compound NOT metabolized | Compound NOT metabolized | Compound NOT metabolized | Compound NOT metabolized | Compound NOT metabolized | Compound NOT metabolized | Compound NOT metabolized | Compound NOT metabolized | Compound NOT metabolized | Compound NOT metabolized | Compound NOT metabolized |
| CCOc1ccc2nc(S(N)(=O)=O)sc2c1 [ETHOXZOLAMIDE] | Compound NOT metabolized | Compound NOT metabolized | Compound NOT metabolized | Compound NOT metabolized | Compound NOT metabolized | Compound NOT metabolized | Compound NOT metabolized | Compound NOT metabolized | Compound metabolized | Compound NOT metabolized | Compound NOT metabolized | Compound NOT metabolized | Compound NOT metabolized | Compound metabolized | Compound NOT metabolized | Compound NOT metabolized | Compound NOT metabolized | Compound NOT metabolized | Compound NOT metabolized | Compound NOT metabolized |
| CCOc1ccccc1OCCN[C@H](C)Cc1ccc(OC)c(S(N)(=O)=O)c1.Cl [TAMSULOSIN HYDROCHLORIDE] | Compound NOT metabolized | Compound NOT metabolized | Compound NOT metabolized | Compound NOT metabolized | Compound NOT metabolized | Compound NOT metabolized | Compound NOT metabolized | Compound metabolized | Compound metabolized | Compound NOT metabolized | Compound NOT metabolized | Compound NOT metabolized | Compound NOT metabolized | Compound metabolized | Compound NOT metabolized | Compound NOT metabolized | Compound metabolized | Compound NOT metabolized | Compound NOT metabolized | Compound NOT metabolized |
| CCOC(=O)C1=C[C@]2(CC)CCCN3CCc4c(n1c1ccccc41)[C@@H]32 [VINPOCETINE] | Compound NOT metabolized | Compound metabolized | Compound metabolized | Compound metabolized | Compound metabolized | Compound NOT metabolized | Compound metabolized | Compound metabolized | Compound metabolized | Compound metabolized | Compound metabolized | Compound NOT metabolized | Compound NOT metabolized | Compound NOT metabolized | Compound NOT metabolized | Compound metabolized | Compound metabolized | Compound metabolized | Compound metabolized | Compound metabolized |
